How the values were obtained:
SF-295 [1] = experiment: Antiproliferative activity against human SF-295 cells by Alamar Blue assay; type: functional, cell-based
MDA-MB-231 [2] = experiment: Antiproliferative activity against human MDA-MB-231 cells by Alamar Blue assay; type: functional, cell-based
MCF7 = experiment: Antiproliferative activity against human MCF7 cells by Alamar Blue assay; type: functional, cell-based
HT-29 = experiment: Growth inhibition of human HT-29 cells measured after 48 hrs by SRB assay; type: functional, cell-based; conditions: HT-29, 48 h
SF-295 [3] = experiment: Growth inhibition of human SF-295 cells measured after 48 hrs by SRB assay; type: functional
MDA-MB-231 [4] = experiment: Growth inhibition of human MDA-MB-231 cells measured after 48 hrs by SRB assay; type: functional
HCT-116 = experiment: Growth inhibition of human HCT-116 cells measured after 48 hrs by SRB assay; type: functional, cell-based; conditions: HCT-116, 48 h

Structure (SMILES) | IC50 (SF-295 [1]) [nM] | IC50 (MDA-MB-231 [2]) [nM] | IC50 (MCF7) [nM] | IC50 (HT-29) [nM] | GI50 (SF-295 [3]) [nM] | GI50 (MDA-MB-231 [4]) [nM] | IC50 (HCT-116) [nM]
CC1=C/C=C/C(=O)O[C@@H]([C@H](C)[C@H](O)[C@@H](C)NC(=O)CCOCCOCCOCCOCCNC(=O)CCCC[C@@H]2SC[C@@H]3NC(=O)N[C@@H]32)[C@H](C)/C=C/C(C)=C/[C@H]2C=CCC[C@@]2(C)\C=C\1 | > 5000 | > 5000 | > 5000 | – | – | – | –
CC(=O)N[C@H](C)[C@@H](O)[C@@H](C)[C@@H]1OC(=O)/C=C/C=C(C)\C=C\[C@]2(C)CCC=C[C@@H]2/C=C(C)/C=C/[C@H]1C | – | 61.1 | 40.8 | 7.5 | < 10 | < 10 | 52.7
